Experimental findings from patent US11834401B2, “Treating and preventing diseases by modulating cell mechanics” (THE JOHNS HOPKINS UNIVERSITY, priority 2013, dated 2023) are described below.

Data set [1] has as its system NLS-tdTomato expressing Dictyostelium cells. On the procedure: NLS-tdTomato expressing Dictyostelium cells were challenged with […] compounds from the ChemBridge Divert-SET library and imaged over three days. Raw data was segmented by CIMPAQ, a designed analytical platform, which rank ordered hits based on their cytokinesis or mitotic inhibitory activity, or lethality. Hits were confirmed through a dose-dependent secondary screening.
Ax3::NLS-tdTomato cells were plated on 384-well COP plates with a MicroFloSelect microplate dispenser (BioTek, Winooski, Vt.) at volumes of 80 μl with a cell concentration of 1000 cells/ml for the 24- and 48-hr time points and at the same volume with a cell concentration of 220 cells/ml for the 72-hr time point. Each plate contained four rows of untreated cells with 0.2% DMSO. For the remaining wells, […] of each small molecule maintained at the Johns Hopkins ChemCORE facility, was added, with a final DMSO concentration of 0.2%. Almost half of the ChemBridge Divert-SET library, which is a 50,000 compound chemical diversity library, was screened over a three-day period on a Becton Dickinson Pathway 855 Bioimager System using a 20× objective (NA 0.75). Each image consisted of a montage of four images collected around the center of the well, resulting in a total size of 1344×1024 pixels per image.
Secondary chemical screening was carried out in quadruplicate, with identical culturing conditions as to the primary screen. 14 mM stocks of each compounds dissolved in 100% DMSO were diluted to the following final concentrations: […], 3.5 nM, 35 nM, 350 nM, 3.5 μM, and 35 μM.
Raw image files from both the primary and secondary screening were processed through CIMPAQ (FIGS. 9E and 9F). The single wavelength fluorescence images were converted from 16-bit format to 8-bit format. The MATLAB Image Processing Toolbox was utilized to segment the images in order to identify the nuclei and cytoplasm. The number of nuclei within each segmented cell was quantified to produce a histogram of nuclei per cell for each image (FIG. 9G). All segmented cells that were coincident with the image edge were disregarded.
Image analysis using CIMPAQ: From the histogram of nuclei per cell count, the ratio of the number of multinucleate cells to the number of mononucleate cells and the ratio of the number of binucleate cells to the number of mononucleate cells were computed. Multinucleate cells are defined as cells that contain >2 nuclei. The distribution of both ratios across multiple wells were simultaneously visualized using a scatter plot, with the ratio of multinucleate cells to mononucleate cells plotted on the x-axis and the ratio of binucleate cells to mononucleate cells plotted on the y-axis (FIGS. 9H and 9I). Other information such as the average number of nuclei per cell, the mean nuclear area, and the normalized histogram with respect to total cell number were also computed.
Hit identification using CIMPAQ: Compounds that generate an increase in the number of multinucleate (>2 nuclei/cell) cells are considered cytokinesis inhibitors. Because nearly all cultured cells, including Dictyostelium, have a low background (typically <5% for WT) of non-mononucleate cells, CIMPAQ spreads the data for each sample by determining the ratio (bi:mono) of binucleate (2 nuclei/cell) to mononucleate cells and the ratio (multi:mono) of multinucleate (>2 nuclei/cell) to mononucleate cells. These two ratios then define a set of Cartesian coordinates, describing the effect of each compound on a given cell-line. The coordinates for each compound are plotted on a two-dimensional graph. CIMPAQ fits the control data to a two-dimensional Gaussian distribution (FIG. 9H) and determines the contour lines for two standard deviations (2SD), 3SD, etc. from the control mean (FIG. 9I).
Hit compounds are rank-ordered based on how many SDs away they are from the untreated wells.

The test system of data set [2] is chicken non-muscle IIB (NMIIB) HMM. Kind of data set: In vitro motility assay (gliding actin filaments). The format is biochemical. The settings on record: 500 nM each alone; 250 nM each in 1:1 ratio. From the text:
The sedimentation assays were used to assess myosin II assembly in cells. The assembly assay used purified proteins (N-terminal 6×His tag (SEQ ID NO: 1), fused to the mCherry fluorophore, fused to the assembly domains of Dictyostelium myosin II (residues 1533-1823), human myosin IIA (residues 1722-1960), and human myosin IIB (residues 1729-1976), and 6×His-tagged (SEQ ID NO: 1) fused Dictyostelium 14-3-3). Purified chicken nonmuscle IIB heavy meromyosin (HMM) was used for in vitro motility.
The chicken non-muscle IIB (NMIIB) HMM construct (residues 1-1228, GenBank™ accession number M93676, no splice insert) was purified as previously described (Norstrom M F, et al., 2010). Motility assays were performed at 22° C. and imaged on Zeiss Axiovert 200 microscope with an Andor Luca camera. The flow cells were constructed using a glass slide, two pieces of double-sided tape, and nitrocellulose-coated coverslip. Flow cells were incubated with 0.05 mg/ml green fluorescent protein antibodies (MP Biomedicals, 0.05 mg/ml in assay buffer (AB) without DTT: 25 mM KCl, 25 mM Imidazole·HCl, pH 7.5, 1 mM K·EGTA, 4 mM MgCl2; 2 min incubation time), followed by a bovine serum albumin block (1 mg/ml in AB—as above with 10 mM DTT; 6 min incubation time). NMIIB was added to the flow cell at a concentration of 420 nM and incubated for 2 min. […]

Data set [3] concerns ASPC-1 cells. Briefly: Matrigel invasion assay. To be noted: transwells with 2 mg/ml Matrigel. Type of data set: cell-based, human. On the procedure:
Cells were treated as in migration assay, but plated in transwells containing 2 mg/ml Matrigel (BD Biosciences).

The test system of data set [4] is AsPC-1 shCTRL and shIIA cells. Briefly: Transwell migration of knockdown lines. The format is cell-based, human. On the procedure:
AsPC-1 cells were plated in 6.5-mm PET membrane transwell inserts with 8-μm pores (Costar #3464) in a 24-well plate at a concentration of 5,000 cells per well. Cells were allowed to adhere overnight in AsPC-1 media. Cell media was then changed to serum-free RPMI 1640 to starve cells for 18 hrs. Following starvation, cells were stimulated by changing media in the top chamber to fresh serum-free RPMI 1640±500 nM 4-HAP and complete AsPC-1 media ±500 nM 4HAP. Cells were then incubated for 24 hrs at 37 degrees C./5% CO2 and then fixed in 4% paraformaldehyde, permeabilized in 0.1% Triton X-100 and stained with 1 μg/ml DAPI. […] A total of five random fields per transwell insert were imaged using a 10× objective (NA) and nuclei were averaged.

Data set [5] relates to microtubule. Briefly: Microtubule structure. Type of data set: cell-based.

Regarding `CC(=O)c1ccc(O)cc1` [4-HAP, 4-hydroxyacetophenone], the “lethality to Dictyostelium cells” value in data set [1] (5000 nM) is recorded as “lethal”. In addition, the “non-muscle myosin IIB velocity (gliding filament velocity of actin filaments)” value in data set [2] is given as “no significant effect”. For the same compound, in data set [3], the in vitro invasion result is given as “dose-dependent decrease”. Moreover, the transwell migration result in data set [4] was “moderate dose-dependence reduction of transwell migration”. The microtubule structure result in data set [5] was “neither 3,4-DCA nor 4-HAP affected microtubule structure”.

Turning to `Nc1ccc(Cl)c(Cl)c1` [3,4-DCA, 3,4-dichloroaniline], in data set [1] (compound alone), the “cytokinesis inhibition / cellular effect of a single component” value is “limited cellular effect”. Besides, the “non-muscle myosin IIB velocity (gliding filament velocity of actin filaments)” value in data set [2] is reported as “no significant effect”. Also, the microtubule structure result in data set [5] is given as “neither 3,4-DCA nor 4-HAP affected microtubule structure”.
